Assay results taken from patent publication US4895589A, “Heterocyclic compounds” (Imperial Chemical Industries PLC, priority 1985, dated 1990).
Where two headings read alike, the source gives them in different places.

How the values were obtained:
[1] = tested on: Apples; experiment: Intermediate Retardant Test, apples; format: in vivo, Apples (Red Delicious); conditions: 672 h, ~28 days, read-out: Percentage Reduction in Height of Apples (Compared to formulation blank)
Experimental: (§1) Three species are involved in this test RICE, SPRING-BARLEY and APPLES. The variety and growth stages at spray are outlined in Table VI. Compounds were applied at 1000 ppm and 4000 ppm respectively (1 kg and 4 kg ha^-1 at a field volume of 1000 l/ha^-1) as an overall spray. This gives a foliar and root component in the test, i.e. this test will detect the activity of both root and foliar acting compounds. The rice was grown in 4" `paddy` pots, i.e. the roots and bottom of the stems are immersed in water under conditions corresponding to those in paddy fields. Spring barley and apples were grown in 4" pots. The plants were assessed for height to top-most ligule at approximately 28 days after treatment for spring barley and rice and for height to apex at approximately 28 days after the treatment for apples. In each case the result for the 1000 ppm and 4000 ppm test for each compound is compared to the height of the formulation blank in that test, presented as a percentage reduction in height compared to the formulation blank.
as §1, with “in Table XIV. Compounds were” for “in Table VI. Compounds were”, “that test, and presented as” for “that test, presented as”

[2] = tested on: Rice; experiment: Intermediate Retardant Test, rice; format: in vivo, Rice (Ishikari); conditions: Oryza sativa, 672 h, ~28 days, read-out: Percentage Reduction in Height of Rice (Compared to formulation blank)
Experimental: as §1
as §1, with “in Table XIV. Compounds were” for “in Table VI. Compounds were”, “that test, and presented as” for “that test, presented as”

[3] = tested on: Spring Barley; experiment: Intermediate Retardant Test, spring barley; format: in vivo, Spring Barley (Atem/kym); conditions: Hordeum vulgare, 672 h, ~28 days, read-out: Percentage Reduction in Height of Spring Barley (Compared to formulation blank)
Experimental: as §1
as §1, with “in Table XIV. Compounds were” for “in Table VI. Compounds were”, “that test, and presented as” for “that test, presented as”

[4] = tested on: plant species of Whole Plant Screen (1) or (2); experiment: Across screen comparison: total retardation relative to paclobutrazol (Whole Plant Screens (1) and (2)); format: in vivo; conditions: for Total Retardation expressed as a percentage of the total retardation caused by paclobutrazol: compounds of EP 0052424, Table XI
Source text: The following Example is a general indicative comparison of compounds from EP No. 0052424 with compounds from the preferred class in the present invention. The compounds have not been side-by-side tested on this Example because of the large numbers involved but the retardant activity can be compared using a standard which has been on each test.
The compounds which are compared in this Example have been tested on one of two tests. These are the Whole Plant Screen (1) and Whole Plant Screen (2) the methods for which are described in Examples 17 and 18 respectively.
An across screen comparison between compounds is made by expressing the total retardation (ie. sum of retardation scores recorded for each species tested) caused by the compound as a percentage of the total retardation caused by the standard in that test. The standard chemical gives a measure of the performance of the test and environmental factors. By expressing the test compound activity as a percentage of the standard compound activity these factors can be eliminated . The same standard has been used in every test and this is paclobutrazol a proprietory growth regulator.

[5] = tested on: Wheat; experiment: Whole Plant Screen (2), wheat; format: in vivo, Wheat (Timmo); conditions: WW, 4000 ppm
Experimental: (§2) Compound numbers 12-13, 16-17 and 19-20 were tested on an alternative whole plant screen (2). The compounds were tested for plant growth regulator activity against five species for various growth effects relevant to plant growth regulation.
The plant species used in this screen are presented in Table IV with the leaf stage at which they were sprayed. Each chemical was applied at 4000 ppm (4 kg/ha in a 1000 l/ha field volume) using a tracksprayer and a SS8004E (Teejet) nozzle. […]
After 2-6 weeks in the glasshouse, depending on the time of year, the plants were visually assessed for morphological characteristics. Formulation blanks were used as controls to assess the plants. […]

[6] = tested on: Rice; experiment: Whole Plant Screen (2), rice; format: in vivo, Rice (Ishikari); conditions: RC, 4000 ppm
Experimental: (§3) After 2-6 weeks in the glasshouse, depending on the time of year, the plants were visually assessed for morphological characteristics. Formulation blanks were used as controls to assess the plants.
(§4) Compound numbers 1, 5 and 7 (of the present invention) were tested against compounds A, B, C and D (compound Nos. 12, 2, 24 and 50 of Table 1 EP No. 0052424) on whole plant screen (2). The compounds were tested of plant growth regulator activity against five species and for various growth effects relevant to plant growth regulation. The structures are set out in FIG. 1.
(§5) The plant species used in this screen are presented in Table XII with the leaf stage at which they were sprayed Each chemical was applied at 4000 ppm (4 kg/ha in a 1000 l/ha field volume) using a tracksprayer and a SS8004E (Teejet) nozzle. […]

[7] = tested on: Maize; experiment: Whole Plant Screen (2), maize; format: in vivo, Maize (Earliking); conditions: MZ, 4000 ppm
Experimental: as §2
The plant species used in this screen are presented in Table IV with the leaf stage at which they were sprayed. Each chemical was applied at 4000 ppm (4 kg/ha in a 1000 l/ha field volume) using a tracksprayer and a SS8004E (Teejet) nozzle.
(§6) After spray the plants were grown in a glasshouse with 25° C. day 22° C. night temperatures and supplementary lighting was supplied when necessary (from mercury vapour lamps), to provide a 16 hour photoperiod. The exception to this were the temperate cereals, wheat and barley which were grown in 16° C. day 13° C. night temperatures.
as §3, §4
The plant species used in this screen are presented in Table XII with the leaf stage at which they were sprayed Each chemical was applied at 4000 ppm (4 kg/ha in a 1000 l/ha field volume) using a tracksprayer and a SS8004E (Teejet) nozzle.
as §6, with “day/22°” for “day 22°”, “day/13°” for “day 13°”

[8] = tested on: Barley; experiment: Whole Plant Screen (2), barley; format: in vivo, Barley (Atem); conditions: BR, 4000 ppm
Experimental: as §4, §5

[9] = tested on: Wheat; conditions: WW, 4000 ppm, 2-3 weeks
Experimental: (§7) The compounds were tested for plant growth regulator activity against up to tweleve plant species for various growth effects relevant to plant growth regulation.
(§8) After spray, the plants were grown in a glasshouse with 25° C. day/22° C. night temperatures and supplementary lighting was supplied when necessary (from mercury vapour lamps), to provide a 16 hour photoperiod. The exception to this were the temperate cereals, wheat and barley, which were grown in 16° C. day 13° C. night temperatures
(§9) After 2-3 weeks in the glasshouse, depending on the time of year, the plants were visually assessed for morphological characteristics. Formulations blanks were used as controls to assess the Plants.

[10] = tested on: Cynosurus cristatus; conditions: CC, 4000 ppm, 2-3 weeks
[11] = tested on: Tomato; conditions: TO, 4000 ppm, 2-3 weeks
Experimental: as §7, §8, §9

In the case of `CCCCCCC#CC(O)(Cn1cncn1)C(C)(C)CF` (stereo not shown) [Compound 21], the percent reduction in plant height vs formulation blank at 1000 ppm ([1]; Table IX) is reported as 10% and the percent reduction in plant height vs formulation blank at 4000 ppm ([1]; Table IX) is reported as 0%.
Compound `COC(C)(C)C#CC(O)(Cn1cncn1)C(C)(C)C` (stereo not shown) [D, reference compound] has a Percent reduction in rice plant height vs formulation blank at 1000 ppm ([2]; side-by-side, Table XVI) of 2%, a Percent reduction in rice plant height vs formulation blank at 4000 ppm ([2]; side-by-side, Table XVI) of 7% and a height reduction vs blank at 1000 ppm ([3]; side-by-side, Table XV) of 9%. The height reduction vs blank at 4000 ppm ([3]; side-by-side, Table XV) was 13%, the percent reduction in plant height vs formulation blank at 1000 ppm ([1]; side-by-side, Table XVII) was 0% and the percent reduction in plant height vs formulation blank at 4000 ppm ([1]; side-by-side, Table XVII) was 0%. The “Total Retardation expressed as a percentage of the total retardation caused by paclobutrazol” value [4] was 3.6 % of paclobutrazol.
With `CC(C)(C)C=CC(O)(Cn1cncn1)C(C)(C)C` (stereo not shown) [A, reference compound] the “G = Greening effect” value ([5]; side-by-side, Table XIII) was 1 (10-30%), the “T = Tillering or side shooting” value ([6]; side-by-side, Table XIII) was 2 (31-60%) and the “I = Interligular or internodal length reduction” value ([7]; side-by-side, Table XIII) was 1 (10-30%). For the same compound, the “R = Retardation” value ([7]; side-by-side, Table XIII) was 1 (10-30%), the Percent reduction in rice plant height vs formulation blank at 1000 ppm ([2]; side-by-side, Table XVI) was 4% and the Percent reduction in rice plant height vs formulation blank at 4000 ppm ([2]; side-by-side, Table XVI) was 20%. The height reduction vs blank at 1000 ppm ([3]; side-by-side, Table XV) was 5%, the height reduction vs blank at 4000 ppm ([3]; side-by-side, Table XV) was 13% and the percent reduction in plant height vs formulation blank at 1000 ppm ([1]; side-by-side, Table XVII) was 2%. For the same compound, the percent reduction in plant height vs formulation blank at 4000 ppm ([1]; side-by-side, Table XVII) was 14%, the “range of activity / superiority in comparison with EP 0052424 compounds” value ([4]; Tables X and XI, across screen comparison) was “higher range of activity than the rest of the compounds” and the “Total Retardation expressed as a percentage of the total retardation caused by paclobutrazol” value [4] was 62.5 % of paclobutrazol.
For `CC(C)(C)C(O)(C=Cc1ccc(Cl)cc1)Cn1cncn1` (stereo not shown) [B, reference compound], the “T = Tillering or side shooting” value ([8]; side-by-side, Table XIII) was 1 (10-30%), the “I = Interligular or internodal length reduction” value ([6]; side-by-side, Table XIII) was 1 (10-30%) and the “R = Retardation” value ([6]; side-by-side, Table XIII) was 1 (10-30%). For the same compound, the “I = Interligular or internodal length reduction” value ([7]; side-by-side, Table XIII) was 1 (10-30%), the “R = Retardation” value ([7]; side-by-side, Table XIII) was 1 (10-30%) and the Percent reduction in rice plant height vs formulation blank at 1000 ppm ([2]; side-by-side, Table XVI) was 3%. For the same compound, the Percent reduction in rice plant height vs formulation blank at 4000 ppm ([2]; side-by-side, Table XVI) was 11%, the height reduction vs blank at 1000 ppm ([3]; side-by-side, Table XV) was 8% and the height reduction vs blank at 4000 ppm ([3]; side-by-side, Table XV) was 7%. The percent reduction in plant height vs formulation blank at 1000 ppm ([1]; side-by-side, Table XVII) was 0%, the percent reduction in plant height vs formulation blank at 4000 ppm ([1]; side-by-side, Table XVII) was 3% and the “Total Retardation expressed as a percentage of the total retardation caused by paclobutrazol” value [4] was 43.1 % of paclobutrazol.
Work on `CC(C)(C)C(O)(C#Cc1ccc(Cl)cc1)Cn1cncn1` (stereo not shown) [C, reference compound] yielded a Percent reduction in rice plant height vs formulation blank at 1000 ppm ([2]; side-by-side, Table XVI) of 5%, a Percent reduction in rice plant height vs formulation blank at 4000 ppm ([2]; side-by-side, Table XVI) of 13% and a height reduction vs blank at 1000 ppm ([3]; side-by-side, Table XV) of 4%. For the same compound, the height reduction vs blank at 4000 ppm ([3]; side-by-side, Table XV) was 6%, the percent reduction in plant height vs formulation blank at 1000 ppm ([1]; side-by-side, Table XVII) was 0% and the percent reduction in plant height vs formulation blank at 4000 ppm ([1]; side-by-side, Table XVII) was 0%. For the same compound, the “Total Retardation expressed as a percentage of the total retardation caused by paclobutrazol” value [4] was 7.1 % of paclobutrazol.
`CCCC#CC(Cn1cncn1)(OC)C(C)(C)C` (stereo not shown) [Compound 12] was tested, and the “I = Interligular or internodal length reduction” value ([7]; 2-6 weeks, Table V) was 1 (10-30%), the “R = Retardation” value ([7]; 2-6 weeks, Table V) was 1 (10-30%) and the Percent reduction in rice plant height vs formulation blank at 1000 ppm ([2]; Table VII) was 23.8%. It also gave a Percent reduction in rice plant height vs formulation blank at 4000 ppm ([2]; Table VII) of 49.7%, a height reduction vs blank at 1000 ppm ([3]; Table VIII) of 2.7% and a height reduction vs blank at 4000 ppm ([3]; Table VIII) of 12.6%. It also gave a percent reduction in plant height vs formulation blank at 1000 ppm ([1]; Table IX) of 15.7% and a percent reduction in plant height vs formulation blank at 4000 ppm ([1]; Table IX) of 33.6%.
`CCCC#CC(O)(Cn1cncn1)C(C)(C)C` (stereo not shown) [Compound 11] was tested, and the height reduction vs blank at 1000 ppm ([3]; Table VIII) was 24%, the height reduction vs blank at 4000 ppm ([3]; Table VIII) was 49.4% and the “Retardation score (1-3) with greening (G), apical damage (A), tillering/side shooting (T)” value (“Retardation score … tillering/side shooting (T)” below) [9] was 1 (10-30% retardation). For the same compound, the “Retardation score … tillering/side shooting (T)” value [10] was 1 (10-30% retardation) and the “Retardation score … tillering/side shooting (T)” value [11] was 2T.
`CCCC#CC(O)(Cn1cncn1)C(C)(C)CCl` (stereo not shown) [Compound 19] showed a percent reduction in plant height vs formulation blank at 4000 ppm ([1]; Table IX) of 36.6%.
With `CCCCCC#CC(O)(Cn1cncn1)C(C)(C)CF` (stereo not shown) [Compound 20] the “I = Interligular or internodal length reduction” value ([8]; 2-6 weeks, Table V) was 1 (10-30%), the “G = Greening effect” value ([5]; 2-6 weeks, Table V) was 2 (31-60%) and the “T = Tillering or side shooting” value ([5]; 2-6 weeks, Table V) was 2 (31-60%). For the same compound, the “T = Tillering or side shooting” value ([6]; 2-6 weeks, Table V) was 1 (10-30%).
